In patent US11685739B2, “High penetration drugs and their compositions thereof for treatment of Parkinson diseases” (TECHFIELDS PHARMA CO., LTD, priority 2013, dated 2023):
Where two headings read alike, the source gives them in different places.

What was measured:
[1] = system: motor function deficits induced by 6-OHDA in Parkinson's disease (PD) model; test: Rotarod test in rats with 6-OHDA lesion, Parkinson's disease (PD) model; format: in vivo, Sprague-Dawley rats; settings: Example 31; L-DOPA orally, pro-drug transdermally
Method: Test subjects (Sprague-Dawley rats) were prepared, grouped, and tested following the protocol below: • 1. 200 Sprague-Dawley rats (male, 200-230 g) underwent brain stereotaxic surgery after 1 week acclamation in animal facility; • 2. After anesthesia, a bur hole (1 mm in diameter) was made on skull on the left side with a motor drill based on the coordinates: AP +0.5 mm, ML −2.8 mm, DV 6.0 mm relative to Bregma; • 3. 6-OHDA (20 μg at 5 mg/mL) or sterile saline was injected into the left striatum with a microsyringe fitted with a 26-gauge steel cannula. The chemical caused the retrograde neurodegeneration in the distal substantia nigra and impairs dopamine transmission in the nigro-striatal pathway, which eventually led to functional disturbance of motor activities; • 4. Apomorphine and classic rotation test was carried out to screen animals at the end of week 3 post 6-OHDA treatment. Animals that matched lesion type and apomorphine-induced rotational scores were allotted to 11 groups; and • 5. Rats were divided into 11 groups (n=12), each group was applied with the drug(s) at the doses specified in Table 2:
• 6. Dose Formulations • (1) L-DOPA in water (3 mg/mL) was the positive control solution for group 1 (orally for group 1, transdermally for groups 2-11). The volume of administration was 2 mL/kg. Vehicle solution (negative control solution for group 2) was 30% ethanol (v/v). The volume of administration was 1286 μL/kg. Other test solutions (groups 3-11) were freshly prepared every day. • (2) Preparation method of test solutions for groups 3-5: 50.33 mg of Drug A was dissolved in 10 mL of 30% ethanol(v/v). This solution was the stock solution[(2)a]. • a. The test solution for group 5 (high dose group) of Drug A: The stock solution [(2)a] was the test solution for Group 5. The volume of administration was 1286 μL/kg. • b. The test solution for group 4 (moderate dose group) of Drug A: 3.00 mL of the stock solution [(2)a] was diluted to final volume 9.00 mL with 30% ethanol(v/v). This solution was the test solution for Group 4. The volume of administration was 1286 μL/kg. • c. […]

[2] = human, pH 7.4
[3] = system: motor function deficits induced by 6-OHDA in Parkinson's disease (PD) model; test: Rotarod test in rats with 6-OHDA lesion, Parkinson's disease (PD) model; format: in vivo, Sprague-Dawley rats; settings: for Side effects (dyskinesia at peak dose, end-of-dose deterioration of function etc.): L-DOPA orally

- The cumulative amount of test compounds ([2]; 1 h): 0.001 mg
- The cumulative amount of test compounds ([2]; 2 h): 0.001 mg
- The cumulative amount of test compounds ([2]; 4 h): 0.002 mg
- The cumulative amount of test compounds ([2]; 8 h): 0.003 mg
Structure (SMILES): NC(Cc1ccc(O)c(O)c1)C(=O)O (stereo not drawn) [Compound-31, 2-amino-3-(3,4-dihydroxyphenyl)propanoic acid]
- Side effects (dyskinesia at peak dose, end-of-dose deterioration of function etc.) [1]: caused nausea, vomiting, gastrointestinal bleeding, dyskinesia at peak dose, and end-of-dose deterioration of function
- Efficacy in Rotarod test comparing to Vehicle group ([3]; Example 31, 6 mg/kg orally (Group 1), three-week treatment): did not exhibit efficacy
- Efficacy in Rotarod test comparing to the negative control group ([3]; Example 33, 6 mg/kg orally, four-week treatment): did not exhibit efficacy
- Side effects (dyskinesia at peak dose, end-of-dose deterioration of function etc.) ([3]; Example 33, pro-drug transdermally): caused nausea, vomiting, gastrointestinal bleeding, dyskinesia at peak dose, and end-of-dose deterioration of function
- Efficacy in Rotarod test comparing to Vehicle group ([3]; Example 35, 6 mg/kg orally, four-week treatment): did not exhibit efficacy
- Side effects (dyskinesia at peak dose, end-of-dose deterioration of function etc.) ([3]; Example 35, pro-drug of dopamine transdermally): caused nausea, vomiting, gastrointestinal bleeding, dyskinesia at peak dose, and end-of-dose deterioration of function
- Efficacy in Rotarod test comparing to Vehicle group ([3]; Example 36, 6 mg/kg orally, four-week treatment): did not exhibit efficacy
- Side effects (dyskinesia at peak dose, end-of-dose deterioration of function etc.) ([3]; Example 36, pro-drug transdermally): caused nausea, vomiting, gastrointestinal bleeding, dyskinesia at peak dose, and end-of-dose deterioration of function
